Values of other authors as cited in US7670617B2, “Sequential drug delivery systems” (CIMA Labs Inc., priority 2001, dated 2010).
Like-named read-outs stand apart in the source and are kept apart here.

Experiments:
[1] = not given; remark: listed apart in the source
[2] = in animals

COc1cc2nc(N3CCN(C(=O)C4COc5ccccc5O4)CC3)nc(N)c2cc1OC (centres unmarked) [Doxazosin]
BIOAVAILABILITY (%) (in vivo): 65%

CN1CCCC1c1cccnc1 (centres unmarked) [Nicotine]
BIOAVAILABILITY (%) (in vivo): 16.7 (±8.6%)

O=C(O)C(O)C(O)C(=O)O.Oc1ccc2c(c1)[C@@]13CCCC[C@@]1(O)[C@@H](C2)N(CC1CCC1)CC3 [Butorphanol Tartrate]
BIOAVAILABILITY (%) (Nasal Spray): 60%-70%

CC(C)(C)NCC(O)c1cc(O)cc(O)c1 (centres unmarked) [Terbutaline sulphate]
BIOAVAILABILITY (%) (in vivo): 30-70%

CN1CCc2cccc3c2[C@H]1Cc1ccc(O)c(O)c1-3 [Apomorphine]
pKa [1]: 7

Oc1ccc2c3c1O[C@H]1[C@@H](O)CC[C@@]4(O)[C@@H](C2)N(CC2CCC2)CC[C@]314 [Nalbuphine]
BIOAVAILABILITY (%) (in vivo): 16 (±8) %

CCOC(=O)[C@H](CCc1ccccc1)N[C@@H](C)C(=O)N1CCC[C@H]1C(=O)O [Enalapril]
BIOAVAILABILITY (%) (in vivo): 41-60%

CN(C)CCC=C1c2ccccc2COc2ccccc21 [Doxepin]
BIOAVAILABILITY (%) (in vivo): 27 ± 10%

CC(NC(C)(C)C)C(=O)c1cccc(Cl)c1.Cl (centres unmarked) [Bupropion:HCI]
BIOAVAILABILITY (%) [2]: 5%-20%

CCOC(=O)[C@H](CCc1ccccc1)N[C@H]1CCc2ccccc2N(CC(=O)O)C1=O.Cl [Benazepril:HCI]
BIOAVAILABILITY (%) (in vivo): 37%

CCOC(=O)[C@H](CCc1ccccc1)N[C@@H](C)C(=O)N1Cc2ccccc2C[C@H]1C(=O)O.Cl [Quinapril•HCI]
BIOAVAILABILITY (%) (in vivo): 60%

CC(C)(C)NC(=O)[C@@H]1C[C@@H]2CCCC[C@@H]2CN1C[C@@H](O)[C@H](Cc1ccccc1)NC(=O)[C@H](CC(N)=O)NC(=O)c1ccc2ccccc2n1 [Saquinavir]
pKa [1]: 7

COc1ccccc1OCCNCC(O)COc1cccc2[nH]c3ccccc3c12 (centres unmarked) [Carvedilol]
BIOAVAILABILITY (%) (in vivo): 25-35%

CC(CCc1ccccc1)NCC(O)c1ccc(O)c(C(N)=O)c1 (centres unmarked) [Labetalol]
BIOAVAILABILITY (%) (in vivo): 18 ± 5%

CC(C)C[C@H]1C(=O)N2CCC[C@H]2[C@]2(O)O[C@](NC(=O)[C@@H]3C=C4c5cccc6[nH]c(Br)c(c56)C[C@H]4N(C)C3)(C(C)C)C(=O)N12 [Bromocriptine]
BIOAVAILABILITY (%) (in vivo): 28%
pKa [1]: 4.9

CCOC(=O)[C@H](CCc1ccccc1)N[C@@H](C)C(=O)N1Cc2cc(OC)c(OC)cc2C[C@H]1C(=O)O [Moexipril]
BIOAVAILABILITY (%) (in vivo): 13%

Cc1nccn1CC1CCc2c(c3ccccc3n2C)C1=O.Cl (centres unmarked) [Ondansetron:HCI]
BIOAVAILABILITY (%) (in vivo): 55%

CC(C)NCC(O)COc1cccc2ccccc12.Cl (centres unmarked) [Propranolol:HCI]
BIOAVAILABILITY (%) (in vivo): 26%

CC(C)(C)NC(=O)[C@H]1CC[C@H]2[C@@H]3CC[C@H]4NC(=O)C=C[C@]4(C)[C@H]3CC[C@]12C [Finasteride]
BIOAVAILABILITY (%) (in vivo): 63%
